# Results reported in patent US6465457B1 (priority 1991, dated 2002).
# Like-named read-outs stand apart in the source and are kept apart here.
# Columns and labels:
# Format in all cases: in vivo
# [1] = system: Erysiphe graminis tritici (Wheat); experiment: Foliar fungal disease test on plants: Erysiphe graminis tritici (Wheat); conditions: plants inoculated 24 hours before treatment
# [2] = system: Septoria nodorum (Wheat); experiment: Foliar fungal disease test on plants: Septoria nodorum (Wheat); conditions: one or two days before inoculation
# [3] = system: Puccinia recondita (Wheat); experiment: Foliar fungal disease test on plants: Puccinia recondita (Wheat)
# [4] = system: Plasmopara viticola (Vines); experiment: Foliar fungal disease test on plants: Plasmopara viticola (Vines); conditions: one or two days before inoculation
# [5] = system: Phytophthora infestans (Tomatoes); conditions: one or two days before inoculation
# [6] = system: Pyricularia oryzae (Rice); conditions: one or two days before inoculation
# [7] = system: Venturia inaequalis (Apples); experiment: Foliar fungal disease test on plants: Venturia inaequalis (Apples); conditions: one or two days before inoculation
# [8] = system: Thanatephorus cucumeries (Rice); experiment: Foliar fungal disease test on plants: Thanatephorus cucumeries (Rice); conditions: one or two days before inoculation
# [9] = 100 ppm a.i. foliar spray or root drench (approx. 40 ppm in dry soil)
# [10] = 100 ppm a.i. foliar spray or root drench, plants inoculated with Puccinia recondita 48 hours before treatment
# [11] = 100 ppm a.i. foliar spray or root drench (approx. 40 ppm in dry soil), one or two days before inoculation
Structure (SMILES),"POCO (Percentage of Control) disease level, Erysiphe graminis tritici (Wheat) [1, 9]","POCO (Percentage of Control) disease level, Septoria nodorum (Wheat) [2, 9]","POCO (Percentage of Control) disease level, Puccinia recondita (Wheat) [3, 10]","POCO (Percentage of Control) disease level, Plasmopara viticola (Vines) [4, 9]","POCO (Percentage of Control) disease level, Phytophthora infestans (Tomatoes) [5, 9]","POCO (Percentage of Control) disease level, Pyricularia oryzae (Rice) [6, 9]","POCO (Percentage of Control) disease level, Venturia inaequalis (Apples) [7, 9]","POCO (Percentage of Control) disease level, Thanatephorus cucumeries (Rice) [8, 9]","POCO (Percentage of Control) disease level, Puccinia recondita (Wheat) [3, 11]","POCO (Percentage of Control) disease level, Erysiphe graminis tritici (Wheat) ([1]; 10 ppm foliar spray only)","POCO (Percentage of Control) disease level, Septoria nodorum (Wheat) ([2]; 10 ppm foliar spray only)","POCO (Percentage of Control) disease level, Puccinia recondita (Wheat) ([3]; 10 ppm foliar spray only, plants inoculated with Puccinia recondita 48 hours before treatment)","POCO (Percentage of Control) disease level, Plasmopara viticola (Vines) ([4]; 10 ppm foliar spray only)","POCO (Percentage of Control) disease level, Phytophthora infestans (Tomatoes) ([5]; 10 ppm foliar spray only)","POCO (Percentage of Control) disease level, Pyricularia oryzae (Rice) ([6]; 10 ppm foliar spray only)","POCO (Percentage of Control) disease level, Venturia inaequalis (Apples) ([7]; 10 ppm foliar spray only)","POCO (Percentage of Control) disease level, Thanatephorus cucumeries (Rice) ([8]; 10 ppm foliar spray only)"
COC=C(C(=O)OC)c1ccccc1COC(=O)N(C)c1cccc(SC)c1 [10 (2)],0 (0 = 0% disease present),0 (0 = 0% disease present),0+ (0 = 0% disease present),0 (0 = 0% disease present),20 (20 and 24 = 10.1-20% disease present),0 (0 = 0% disease present),0 (0 = 0% disease present),20 (20 and 24 = 10.1-20% disease present),–,–,–,–,–,–,–,–,–
C=CCN(C(=O)OCc1ccccc1C(=COC)C(=O)OC)c1c(F)cccc1F [23 (101)],0 (0 = 0% disease present),10 (10 = 5.1-10% disease present),0+ (0 = 0% disease present),0 (0 = 0% disease present),90 (90 and 94 = 60.1-100% disease present),0 (0 = 0% disease present),0 (0 = 0% disease present),0 (0 = 0% disease present),–,–,–,–,–,–,–,–,–
COC=C(C(=O)OC)c1ccccc1COC(=O)Nc1ccccc1F [3 (1)],0 (0 = 0% disease present),0 (0 = 0% disease present),–,0 (0 = 0% disease present),30 (30 = 20.1-30% disease present),90 (90 and 94 = 60.1-100% disease present),1 (1 = 0.1-1% disease present),90 (90 and 94 = 60.1-100% disease present),0 (0 = 0% disease present),–,–,–,–,–,–,–,–
CNC(=O)C(=NOC)c1ccccc1COC(=O)N(C)c1ccccc1 [5 (66)],0 (0 = 0% disease present),5 (5 = 3.1-5% disease present),10+ (10 = 5.1-10% disease present),0 (0 = 0% disease present),0 (0 = 0% disease present),0 (0 = 0% disease present),0 (0 = 0% disease present),0 (0 = 0% disease present),–,–,–,–,–,–,–,–,–
CCN(C(=O)OCc1ccccc1C(=COC)C(=O)OC)c1c(F)cccc1F [23 (3)],0 (0 = 0% disease present),5 (5 = 3.1-5% disease present),0+ (0 = 0% disease present),0 (0 = 0% disease present),5 (5 = 3.1-5% disease present),1 (1 = 0.1-1% disease present),0 (0 = 0% disease present),0 (0 = 0% disease present),–,–,–,–,–,–,–,–,–
COC=C(C(=O)OC)c1ccccc1COC(=O)N(C(C)=O)c1ccccc1Cl [12 (99)],30 (30 = 20.1-30% disease present),10 (10 = 5.1-10% disease present),30+ (30 = 20.1-30% disease present),0 (0 = 0% disease present),90 (90 and 94 = 60.1-100% disease present),10 (10 = 5.1-10% disease present),5 (5 = 3.1-5% disease present),90 (90 and 94 = 60.1-100% disease present),–,–,–,–,–,–,–,–,–
"CO/C=C(/C(=O)OC)c1ccccc1COC(=O)Nc1ccccc1 [5 (1), (E)-methyl 3-methoxy-2-[2-((phenyl)carbamoyloxymethyl)phenyl]propenoate]",60 (60 = 30.1-60% disease present),30 (30 = 20.1-30% disease present),–,5 (5 = 3.1-5% disease present),60 (60 = 30.1-60% disease present),10 (10 = 5.1-10% disease present),30 (30 = 20.1-30% disease present),60 (60 = 30.1-60% disease present),60 (60 = 30.1-60% disease present),–,–,–,–,–,–,–,–
CCN(C(=O)OCc1ccccc1C(=COC)C(=O)OC)c1ccc(F)c(F)c1 [28 (3)],0 (0 = 0% disease present),0 (0 = 0% disease present),0+ (0 = 0% disease present),0 (0 = 0% disease present),20 (20 and 24 = 10.1-20% disease present),1 (1 = 0.1-1% disease present),0 (0 = 0% disease present),0 (0 = 0% disease present),–,–,–,–,–,–,–,–,–
COC=C(C(=O)OC)c1ccccc1COC(=O)N(C)c1ccccc1SC [21 (2)],–,–,–,–,–,–,–,–,–,90 (90 and 94 = 60.1-100% disease present),60 (60 = 30.1-60% disease present),90+ (90 and 94 = 60.1-100% disease present),0 (0 = 0% disease present),90 (90 and 94 = 60.1-100% disease present),30 (30 = 20.1-30% disease present),60 (60 = 30.1-60% disease present),90 (90 and 94 = 60.1-100% disease present)
COC=C(C(=O)OC)c1ccccc1COC(=O)Nc1ccc(F)c([N+](=O)[O-])c1 [105 (1)],30 (30 = 20.1-30% disease present),90 (90 and 94 = 60.1-100% disease present),90+ (90 and 94 = 60.1-100% disease present),90 (90 and 94 = 60.1-100% disease present),90 (90 and 94 = 60.1-100% disease present),60 (60 = 30.1-60% disease present),20 (20 and 24 = 10.1-20% disease present),60 (60 = 30.1-60% disease present),–,–,–,–,–,–,–,–,–
COC=C(C(=O)OC)c1ccccc1COC(=O)N(C)c1ccc(F)c(F)c1 [28 (2)],0 (0 = 0% disease present),0 (0 = 0% disease present),0+ (0 = 0% disease present),0 (0 = 0% disease present),10 (10 = 5.1-10% disease present),0 (0 = 0% disease present),0 (0 = 0% disease present),0 (0 = 0% disease present),–,–,–,–,–,–,–,–,–
